In patent US4714765A, “Rhodanine derivatives and process for preparing the same” (Taiho Pharmaceutical Company, Limited, priority 1985, dated 1987) one finds IC50 data, which are given here for 3 compounds.

This assay addresses T1, Rat Lens Aldose Reductase (Rattus norvegicus, UniProt P07943).
T1 construct: The lenses were then homogenized in cold distilled water; from tissue; host or cells: lens of Sprague-Dawley rats, supernatant of homogenate (10,000 rpm, 10 min)
In words: Aldose reductase inhibitory activity (Rat Lens Aldose Reductase). Format: biochemical, rat (Sprague-Dawley). The note with it: rat lens homogenate supernatant; glyceraldehyde as substrate; decrease in NADPH at 340 nm; read-out: IC50 (concentration of the test compound at which 50% inhibition of aldose reductase is achieved). The protocol: Aldose reductase inhibitory activity
Rat Lens Aldose Reductase:
This test was conducted according to the method described in J. Biol. Chem., 240, 877 (1965).
Sprague-Dawley rats weighing 100 to 150 g were suffocated with carbon dioxide and the lenses were carefully removed. The lenses were then homogenized in cold distilled water (0.4 ml/lens) and the homogenate was centrifuged at 10,000 rpm for 10 min. The enzyme, i.e. aldose reductase was spectrophotometrically measured by following the decrease in NADPH at 340 nm with glyceraldehyde as substrate. An IC50 i.e., a concentration of the test compound at which 50% inhibition of aldose reductase is achieved was calculated from estimated dose-response curves.
For `Cc1cc(C=CC=C2SC(=S)NC2=O)on1` [Compound 1a, 5-[3-(3-methyl-5-isoxazolyl)-1,3-propanediene]rhodanine], the IC50 stood at 4000 nM.
Turning to `Cc1cc(C=CC=C2SC(=S)N(CC(=O)O)C2=O)on1` [Compound 1b], the IC50 is 130 nM.
As for `Cc1cc(CC2SC(=S)N(CC(=O)O)C2=O)on1` (stereo not drawn) [Compound 1g, 5-(3-methyl-5-isoxazolylmethyl)rhodanine-3-acetic acid], the IC50 came out at 640 nM.
